These results are taken from the supplement of paper PMC12076712.

What all share (assay): pIC50, kinobeads binding competition
One test concerns the target UniProt P35916. The settings on record: cell material: Lysate mix. In short, it runs like this:
(§1)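 Either living Jurkat cells (60 min at 37 °C, then lysis) or lysates (60 min at 4 °C) were treated with nine compound concentrations from a top of 30 μM, in 1:4 steps for cells and 1:5 steps for lysates. The lysates were from Jurkat cells or a 1:1:1:1 mix of HEK293, K-562, HepG2 and placenta. Kinobeads-bound proteins were digested and quantified by TMT10 LC-MS/MS. pIC50 was calculated by logistic dose-response fitting (R drc package) of fold changes relative to vehicle, in biological duplicates.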

The target of the next test is UniProt P17612. In short, it runs like this:
as §1

For a further test, the target named is T1, JAK3 (UniProt P52333).
T1 sequence (whole entry): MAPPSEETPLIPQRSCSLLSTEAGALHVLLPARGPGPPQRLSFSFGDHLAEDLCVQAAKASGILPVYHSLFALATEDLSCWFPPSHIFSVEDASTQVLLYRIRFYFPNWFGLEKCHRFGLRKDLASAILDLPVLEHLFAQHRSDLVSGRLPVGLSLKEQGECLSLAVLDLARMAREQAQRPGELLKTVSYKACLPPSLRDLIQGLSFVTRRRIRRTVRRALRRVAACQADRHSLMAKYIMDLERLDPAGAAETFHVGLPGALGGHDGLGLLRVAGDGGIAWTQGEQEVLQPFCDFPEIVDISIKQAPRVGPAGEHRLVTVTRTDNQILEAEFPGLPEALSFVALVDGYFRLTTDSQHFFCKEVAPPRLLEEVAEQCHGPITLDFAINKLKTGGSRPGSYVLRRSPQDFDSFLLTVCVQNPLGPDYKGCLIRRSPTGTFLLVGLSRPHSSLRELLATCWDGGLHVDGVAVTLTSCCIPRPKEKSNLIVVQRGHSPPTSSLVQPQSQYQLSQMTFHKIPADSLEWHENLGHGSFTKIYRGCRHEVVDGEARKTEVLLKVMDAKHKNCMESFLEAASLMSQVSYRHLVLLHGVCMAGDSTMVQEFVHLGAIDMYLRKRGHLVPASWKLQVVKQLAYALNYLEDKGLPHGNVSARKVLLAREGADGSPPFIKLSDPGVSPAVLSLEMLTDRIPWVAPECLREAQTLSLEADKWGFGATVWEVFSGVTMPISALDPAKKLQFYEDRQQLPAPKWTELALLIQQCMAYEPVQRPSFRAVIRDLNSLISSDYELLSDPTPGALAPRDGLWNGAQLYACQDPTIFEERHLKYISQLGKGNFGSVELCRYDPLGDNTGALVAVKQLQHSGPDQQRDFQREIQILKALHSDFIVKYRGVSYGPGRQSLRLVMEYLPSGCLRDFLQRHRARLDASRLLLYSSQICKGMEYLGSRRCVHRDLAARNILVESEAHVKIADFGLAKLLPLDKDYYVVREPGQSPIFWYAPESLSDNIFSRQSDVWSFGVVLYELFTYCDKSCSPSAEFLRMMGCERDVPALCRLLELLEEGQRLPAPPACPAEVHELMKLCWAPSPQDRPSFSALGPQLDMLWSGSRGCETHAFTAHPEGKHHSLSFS
In short, it runs like this:
as §1

Another test has as its target T2, UniProt Q9Y2U5.
T2 sequence (whole entry): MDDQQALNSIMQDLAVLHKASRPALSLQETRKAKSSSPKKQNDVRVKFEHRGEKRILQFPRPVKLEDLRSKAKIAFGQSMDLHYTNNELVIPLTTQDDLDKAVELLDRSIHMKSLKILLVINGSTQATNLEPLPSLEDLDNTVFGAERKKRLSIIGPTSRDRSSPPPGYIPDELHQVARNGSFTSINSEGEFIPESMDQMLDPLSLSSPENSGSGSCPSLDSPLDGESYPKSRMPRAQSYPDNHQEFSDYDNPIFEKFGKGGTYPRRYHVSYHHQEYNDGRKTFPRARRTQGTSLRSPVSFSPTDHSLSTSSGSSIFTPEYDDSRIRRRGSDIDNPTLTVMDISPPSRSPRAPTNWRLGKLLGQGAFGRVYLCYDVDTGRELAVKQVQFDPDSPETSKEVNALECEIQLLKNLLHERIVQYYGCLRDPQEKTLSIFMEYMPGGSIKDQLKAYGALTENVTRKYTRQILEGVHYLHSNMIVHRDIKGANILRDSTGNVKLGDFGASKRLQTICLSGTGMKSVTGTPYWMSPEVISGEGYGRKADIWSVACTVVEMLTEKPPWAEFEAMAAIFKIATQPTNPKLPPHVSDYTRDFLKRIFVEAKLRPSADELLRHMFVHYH
In short, it runs like this:
as §1

The target of a further test is T3, CDKL5 (UniProt O76039).
T3 sequence (whole entry): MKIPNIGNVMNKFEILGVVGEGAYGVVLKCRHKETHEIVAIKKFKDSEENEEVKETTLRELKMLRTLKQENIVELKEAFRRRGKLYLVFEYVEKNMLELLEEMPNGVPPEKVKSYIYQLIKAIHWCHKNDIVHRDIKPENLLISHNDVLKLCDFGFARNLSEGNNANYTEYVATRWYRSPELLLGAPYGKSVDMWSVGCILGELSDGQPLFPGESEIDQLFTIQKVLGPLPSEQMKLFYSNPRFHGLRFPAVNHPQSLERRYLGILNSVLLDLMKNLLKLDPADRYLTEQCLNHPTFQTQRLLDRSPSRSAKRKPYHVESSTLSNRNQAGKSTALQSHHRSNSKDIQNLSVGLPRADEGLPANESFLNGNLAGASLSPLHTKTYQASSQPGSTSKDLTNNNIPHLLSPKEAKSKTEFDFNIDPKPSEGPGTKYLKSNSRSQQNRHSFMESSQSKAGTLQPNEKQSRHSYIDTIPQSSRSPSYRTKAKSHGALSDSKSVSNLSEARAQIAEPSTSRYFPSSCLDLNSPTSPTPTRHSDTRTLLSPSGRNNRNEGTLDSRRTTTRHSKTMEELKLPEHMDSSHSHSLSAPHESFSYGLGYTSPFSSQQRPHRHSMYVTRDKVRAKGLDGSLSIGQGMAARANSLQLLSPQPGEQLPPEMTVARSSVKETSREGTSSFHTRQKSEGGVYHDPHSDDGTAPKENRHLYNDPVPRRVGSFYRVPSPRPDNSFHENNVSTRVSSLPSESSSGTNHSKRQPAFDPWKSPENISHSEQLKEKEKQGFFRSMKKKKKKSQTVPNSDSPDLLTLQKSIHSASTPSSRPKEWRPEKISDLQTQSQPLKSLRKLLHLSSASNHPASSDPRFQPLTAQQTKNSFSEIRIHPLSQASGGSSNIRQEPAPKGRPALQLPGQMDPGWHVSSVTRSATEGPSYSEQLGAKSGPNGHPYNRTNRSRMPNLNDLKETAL
In short, it runs like this:
as §1

The next test deals with FGFR3 (UniProt P22607). The settings on record: cell material: Lysate mix. The method in brief: as §1

Structures are written as SMILES. Where only a bound is given, the exact number is not on record here.

What is called pIC50 is −log10 of the IC50, conventionally taken in molar units.

Sequence of UniProt P35916 (P35916 whole entry): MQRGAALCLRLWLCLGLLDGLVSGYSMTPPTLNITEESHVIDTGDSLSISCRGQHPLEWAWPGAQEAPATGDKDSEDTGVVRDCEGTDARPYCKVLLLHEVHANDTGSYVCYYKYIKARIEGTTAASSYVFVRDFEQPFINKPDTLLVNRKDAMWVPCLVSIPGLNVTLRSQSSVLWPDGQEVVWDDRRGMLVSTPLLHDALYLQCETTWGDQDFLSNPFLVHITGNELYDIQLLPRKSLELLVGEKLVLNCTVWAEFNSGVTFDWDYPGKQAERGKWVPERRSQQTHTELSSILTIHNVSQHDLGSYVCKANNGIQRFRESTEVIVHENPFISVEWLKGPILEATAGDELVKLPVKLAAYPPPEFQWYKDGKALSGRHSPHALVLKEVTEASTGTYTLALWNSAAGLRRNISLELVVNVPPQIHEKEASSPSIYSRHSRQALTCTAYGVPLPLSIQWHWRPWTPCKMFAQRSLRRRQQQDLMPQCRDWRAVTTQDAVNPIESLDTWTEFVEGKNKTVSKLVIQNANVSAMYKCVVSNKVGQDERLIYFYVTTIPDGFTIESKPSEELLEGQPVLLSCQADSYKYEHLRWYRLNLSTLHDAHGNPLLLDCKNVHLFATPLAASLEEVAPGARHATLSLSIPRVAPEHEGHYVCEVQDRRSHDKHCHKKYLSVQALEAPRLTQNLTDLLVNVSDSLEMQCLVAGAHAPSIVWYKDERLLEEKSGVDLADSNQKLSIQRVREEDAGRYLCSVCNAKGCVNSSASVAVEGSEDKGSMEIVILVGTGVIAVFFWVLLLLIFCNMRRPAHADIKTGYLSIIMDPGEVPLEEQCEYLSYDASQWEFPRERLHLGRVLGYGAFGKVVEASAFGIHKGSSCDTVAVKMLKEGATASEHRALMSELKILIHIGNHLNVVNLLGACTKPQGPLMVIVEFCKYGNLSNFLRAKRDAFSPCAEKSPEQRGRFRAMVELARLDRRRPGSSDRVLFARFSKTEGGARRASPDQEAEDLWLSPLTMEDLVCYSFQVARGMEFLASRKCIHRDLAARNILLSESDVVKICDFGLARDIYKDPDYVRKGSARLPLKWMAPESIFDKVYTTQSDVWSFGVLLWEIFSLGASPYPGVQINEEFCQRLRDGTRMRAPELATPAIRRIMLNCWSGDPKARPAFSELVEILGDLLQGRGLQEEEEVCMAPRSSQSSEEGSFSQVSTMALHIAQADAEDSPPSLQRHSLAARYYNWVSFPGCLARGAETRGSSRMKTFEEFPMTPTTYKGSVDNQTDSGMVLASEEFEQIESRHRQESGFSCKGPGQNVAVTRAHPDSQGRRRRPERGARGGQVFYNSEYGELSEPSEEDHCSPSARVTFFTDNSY
Sequence of FGFR3 (P22607 whole entry, looked up): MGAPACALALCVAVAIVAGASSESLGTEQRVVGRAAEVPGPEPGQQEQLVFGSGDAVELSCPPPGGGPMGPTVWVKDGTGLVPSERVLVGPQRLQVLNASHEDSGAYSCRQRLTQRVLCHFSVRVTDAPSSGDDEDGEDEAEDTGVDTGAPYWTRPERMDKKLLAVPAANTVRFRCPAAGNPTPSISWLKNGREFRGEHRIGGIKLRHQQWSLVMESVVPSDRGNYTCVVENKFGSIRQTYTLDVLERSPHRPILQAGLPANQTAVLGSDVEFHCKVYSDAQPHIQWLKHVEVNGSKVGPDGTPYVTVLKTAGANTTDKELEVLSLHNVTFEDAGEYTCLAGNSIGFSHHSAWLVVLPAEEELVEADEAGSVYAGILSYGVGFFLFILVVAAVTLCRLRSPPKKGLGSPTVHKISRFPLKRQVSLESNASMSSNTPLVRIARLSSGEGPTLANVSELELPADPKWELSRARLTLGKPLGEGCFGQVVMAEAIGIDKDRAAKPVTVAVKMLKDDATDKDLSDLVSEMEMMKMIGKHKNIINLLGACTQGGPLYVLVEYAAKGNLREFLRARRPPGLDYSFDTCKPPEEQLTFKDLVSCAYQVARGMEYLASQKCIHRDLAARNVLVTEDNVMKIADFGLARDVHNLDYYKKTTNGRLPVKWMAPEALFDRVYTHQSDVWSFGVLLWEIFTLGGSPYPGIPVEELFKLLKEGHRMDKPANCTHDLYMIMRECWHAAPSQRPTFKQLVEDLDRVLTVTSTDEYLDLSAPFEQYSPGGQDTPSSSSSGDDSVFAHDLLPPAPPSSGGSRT

Take `O=C(NCCNC(=O)c1cc(Nc2cc(C3CC3)[nH]n2)nc(N2CCN(Cc3ccc(S(=O)(=O)F)cc3)CC2)n1)OC1CC/C=C/CCC1` (stereo not given): the pIC50 on UniProt P35916 was less than 4.52; on UniProt P17612 (cell material: Jurkat cells) it was less than 4.52; at UniProt P17612 (cell material: Jurkat lysate), less than 4.52; on UniProt P17612 (cell material: Lysate mix), less than 4.52; at JAK3 (cell material: Jurkat cells) it was 5.39; on JAK3 (cell material: Jurkat lysate), less than 4.52. The pIC50 on JAK3 (cell material: Lysate mix) is less than 4.52; at UniProt Q9Y2U5 (cell material: Jurkat cells) it was 5.38; on UniProt Q9Y2U5 (cell material: Jurkat lysate), less than 4.52; on UniProt Q9Y2U5 (cell material: Lysate mix) it was less than 4.52; on CDKL5 (cell material: Jurkat lysate), 4.89; on CDKL5 (cell material: Lysate mix), 5.12. This compound displayed a pIC50 on FGFR3 of less than 4.52.
Turning to `Cc1cc(Nc2cc(C(=O)NCCNC(=O)OC3CC/C=C/CCC3)nc(N3CCN(Cc4ccc(S(=O)(=O)F)cc4)CC3)n2)n[nH]1` (stereo not given), the pIC50 at UniProt P35916, on UniProt P17612 (cell material: Lysate mix), on JAK3 (cell material: Lysate mix), on UniProt Q9Y2U5 (cell material: Lysate mix), on CDKL5 (cell material: Lysate mix) and on FGFR3 was less than 4.52 in each case.
On to `CCNC(=O)c1cc(Nc2cc(C)[nH]n2)nc(N2CCN(Cc3ccc(S(=O)(=O)F)cc3)CC2)n1`, for which the pIC50 was less than 4.52 at UniProt P35916; less than 4.52 on UniProt P17612 (cell material: Lysate mix); 5.89 at JAK3 (cell material: Lysate mix); 4.67 at UniProt Q9Y2U5 (cell material: Lysate mix); 5.11 on CDKL5 (cell material: Lysate mix); less than 4.52 on FGFR3.
Turning to `C#CCNC(=O)c1cc(Nc2cc(C3CC3)[nH]n2)nc(N2CCN(Cc3ccc(S(=O)(=O)F)cc3)CC2)n1`, the pIC50 at UniProt P35916 is less than 4.52; at UniProt P17612 (cell material: Jurkat cells) it was less than 4.52; on UniProt P17612 (cell material: Jurkat lysate), less than 4.52; at UniProt P17612 (cell material: Lysate mix), less than 4.52; at JAK3 (cell material: Jurkat cells), 5.94; at JAK3 (cell material: Jurkat lysate), 5.42. In addition, the pIC50 was 6.08 at JAK3 (cell material: Lysate mix); 5.84 at UniProt Q9Y2U5 (cell material: Jurkat cells); 5.47 at UniProt Q9Y2U5 (cell material: Lysate mix); 6.89 at CDKL5 (cell material: Jurkat cells); 5.95 at CDKL5 (cell material: Jurkat lysate); 6.41 on CDKL5 (cell material: Lysate mix). The pIC50 at FGFR3 is less than 4.52.
With `C#CCNC(=O)c1cc(Nc2cc(C)[nH]n2)nc(N2CCN(Cc3ccc(S(=O)(=O)F)cc3)CC2)n1`, the pIC50 on UniProt P35916 is less than 4.52; on UniProt P17612 (cell material: Lysate mix), less than 4.52; at JAK3 (cell material: Lysate mix), 5.7; at UniProt Q9Y2U5 (cell material: Lysate mix) it was 4.82; on CDKL5 (cell material: Lysate mix), 5.23; on FGFR3, less than 4.52.
With `CCNC(=O)c1cc(Nc2cc(C3CC3)[nH]n2)nc(N2CCN(Cc3ccc(S(=O)(=O)F)cc3)CC2)n1`, the pIC50 at UniProt P35916 is less than 4.52; on UniProt P17612 (cell material: Lysate mix), less than 4.52; on JAK3 (cell material: Lysate mix) it was 5.97; at UniProt Q9Y2U5 (cell material: Lysate mix), 5.29; on CDKL5 (cell material: Lysate mix) it was 6.16; on FGFR3, 5.04.
